Laboratory results taken from patent publication US20110003777A1, “Methods of Treatment Employing Prolonged Continuous Infusion of Belinostat” (TOPOTARGET A/S, priority 2008, published 2011).

How the values were obtained:
[1] = tested on: NYH: human small cell lung cancer; assay: Clonogenic assay with increasing time of exposure, NYH; type: cell-based
Text: (§1) The data are summarised in FIG. 1, which is a graph of EC50 (μM), as determined using the clonogenic assay described above, as a function of exposure time (hours) for the four cells lines, P388 (diamonds), A2780 (circles), NYH (triangles), and L1210 (squares).

patients = details: 30 minute intravenous bolus with standard dose carboplatin or paclitaxel (Sinha et al., 2007); cited from earlier work
[2] = reported; cited from earlier work
[3] = water at physiological pH; cited from earlier work
[4] = tested on: P388: mouse lymphocytic leukemia; assay: Clonogenic assay with increasing time of exposure, P388; type: cell-based
Text: as §1

[5] = tested on: human patient with AML (acute myeloid leukemia); assay: Continuous intravenous infusion in a human subject with AML; type: in vivo; details: for Blasts (absolute) / WBC / Platelets: peripheral blood
Text: The patient was a person with AML (acute myeloid leukemia). The patient had arterial hypertension since 1986, hypothyroidism since 1997 (treated with levothyroxin), anorexia, an enlarged spleen, night sweats since 2007, allergic exanthema since January 2008, and conjunctival hemorrhage from February 2007. AML was first diagnosed in December 2006. Prior treatment included four courses of decitabine from July 2007 to November 2007.

[6] = tested on: patients with various solid-tumours; details: intravenous bolus over 30 minutes, 150 to 1200 mg/m^2, solid tumours (Steele et al., 2008); cited from earlier work
[7] = tested on: A2780: human ovarian cancer; assay: Clonogenic assay with increasing time of exposure, A2780; type: cell-based
Text: as §1

[8] = tested on: L1210: mouse lymphocytic leukemia; assay: Clonogenic assay with increasing time of exposure, L1210; type: cell-based
Text: as §1

[9] = Day 15, before starting the 2nd cycle

SMILES: O=C(/C=C/c1cccc(S(=O)(=O)Nc2ccccc2)c1)NO [Belinostat™, (E)-N-hydroxy-3-(3-phenylsulfamoyl-phenyl)-acrylamide]
- EC50 values ([1]; longer incubation (≧16 hours)): markedly reduced
- activity in clonogenic assay ([1]; short incubation times): weak activity
- maximum tolerated dose (patients): 1000 mg/m^2/d
- plasma half-life [2]: 47 to 86 min
- solubility in water [3]: sparingly soluble
- EC50 values ([4]; P388, longer incubation (≧16 hours)): markedly reduced
- activity in clonogenic assay ([4]; P388, short incubation times): weak activity
- tolerability of first infusion ([5]; 800 mg/m^2/d continuous i.v. infusion, first cycle): tolerated well
- time of infusion at interruption due to fever (39° C.), dyspnea, and cough ([5]; 800 mg/m^2/d, first cycle, planned 48 hours): 37 h
- tolerability of second cycle ([5]; 800 mg/m^2/d, full 48 hour cycle on Day 15 and Day 16): no reports of serious adverse events
- Platelet counts following second cycle ([5]; after second 48 hour cycle): moderately depressed
- tolerability and efficacy of continuous infusion ([5]; human, continuous infusion): feasible, well tolerated and efficacious
- Blasts (absolute) ([5]; 24 h, pre-treatment 2.4): 5e+08 L⁻¹
- WBC ([5]; 24 h, pre-treatment 3.8): 1.3e+09 L⁻¹
- Blasts (absolute) ([5]; 48 h, pre-treatment 2.4): 2e+08 L⁻¹
- WBC ([5]; 48 h, pre-treatment 3.8): 6e+08 L⁻¹
- Blasts (absolute) ([5]; Day 5): 1.6e+09 L⁻¹
- Platelets ([5]; Day 5): 8e+10 L⁻¹
- WBC ([5]; Day 5): 2.8e+09 L⁻¹
- Blasts (absolute) ([5]; Day 8): 2e+09 L⁻¹
- Platelets ([5]; Day 8): 3.9e+10 L⁻¹
- WBC ([5]; Day 8): 4.2e+09 L⁻¹
- Blasts (absolute) [5, 9]: 1.03e+10 L⁻¹
- Platelets [5, 9]: 7.3e+10 L⁻¹
- WBC [5, 9]: 1.21e+10 L⁻¹
- Blasts (absolute) ([5]; Day 19 (after 2nd cycle)): 3.8e+09 L⁻¹
- Platelets ([5]; Day 19 (after 2nd cycle)): 4.2e+10 L⁻¹
- WBC ([5]; Day 19 (after 2nd cycle)): 4.9e+09 L⁻¹
- Blasts (absolute) ([5]; Day 22): 5.6e+09 L⁻¹
- Platelets ([5]; Day 22): 3.3e+10 L⁻¹
- WBC ([5]; Day 22): 7.4e+09 L⁻¹
- Blasts (absolute) ([5]; Day 26): 1.26e+10 L⁻¹
- Platelets ([5]; Day 26): 3.4e+10 L⁻¹
- WBC ([5]; Day 26): 1.57e+10 L⁻¹
- maximum tolerated dose [6]: 1000 mg/m^2
- EC50 values ([7]; A2780, longer incubation (≧16 hours)): markedly reduced
- activity in clonogenic assay ([7]; A2780, short incubation times): weak activity
- EC50 values ([8]; L1210, longer incubation (≧16 hours)): markedly reduced
- activity in clonogenic assay ([8]; L1210, short incubation times): weak activity
